Read-outs that look alike come from different tables or passages of the source.
Experiments:
in vitro [1] = details: rat
in vitro [2] = details: rat, gh3-tre-luc cells, AC50 (uM) modified / 1000
[3] = tested on: Tox21 cell viability assays (different cell types); assay: Global cytotoxicity: eighteen Tox21 cell viability assays; assay type: cell-based
[4] = as above; assay type: cell-based
[5] = tested on: thyroid hormone receptor (endogenous TRα and TRβ); assay: GH3-TRE-Antag primary qHTS, luciferase reporter, antagonist mode with 1 nM T3 (TOX21_TR_LUC_GH3_Antagonist, aeid 804); assay type: cell-based, rat
[6] = tested on: thyroid hormone receptor (endogenous TRα and TRβ); assay: GH3-TRE-Ag primary qHTS, luciferase reporter, agonist mode (TOX21_TR_LUC_GH3_Agonist, aeid 803); assay type: cell-based, rat; details: for AC50: read-out: GH3-TRE-Ag AC50; for GH3-TRE-Ag AC50 hitc: hit call from tcpl
[7] = molecular target: T1, human TRβ ligand-binding domain (Homo sapiens, UniProt P10828); assay: TRb-coa LanthaScreen TR-FRET coactivator (SRC-2 peptide) recruitment, agonist (TOX21_TRB_COA_Agonist_Followup_ratio, aeid 2244); assay type: biochemical; set-up: host or cells: GeneBLAzer UAS-bla HEK 293T; details: for AC50: cell-free coactivator recruitment, read-out: TRb-coa-Ag AC50; for TRb-coa hitc: hit call from tcpl, agonist; for Emax: read-out: EMax (% of Control) trb-coa-agonist-followup-1
T1 sequence (P10828 217-461 limits assumed): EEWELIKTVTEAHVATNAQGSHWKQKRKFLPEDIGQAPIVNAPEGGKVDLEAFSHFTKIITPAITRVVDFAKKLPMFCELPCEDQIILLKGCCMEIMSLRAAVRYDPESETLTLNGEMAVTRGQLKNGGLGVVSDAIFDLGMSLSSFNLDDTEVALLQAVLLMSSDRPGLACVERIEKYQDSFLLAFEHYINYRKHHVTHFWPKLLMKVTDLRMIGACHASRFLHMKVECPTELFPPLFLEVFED

GH3-TRE-Luc cell line [8] = details: rat, 24 h
[9] = tested on: thyroid hormone receptor (endogenous TRα and TRβ); assay: GH3-TRE-Ag-Followup confirmation (TOX21_TR_LUC_GH3_Agonist_Followup, aeid 2226); assay type: cell-based, rat; details: for AC50: confirmation, agonist mode, read-out: GH3-TRE-Ag-Followup AC50; for GH3-TRE-Ag-Followup hitc: hit call from tcpl
[10] = molecular target: T1, human TRβ ligand-binding domain; assay: TRb-bla agonist mammalian one-hybrid beta-lactamase assay (TOX21_TRB_BLA_Agonist_Followup_ratio, aeid 2236); assay type: cell-based; set-up: host or cells: GeneBLAzer UAS-bla HEK 293T; details: for AC50: HEK 293T one-hybrid, agonist mode, read-out: TRb-bla-Ag AC50; for TRb-bla hitc: hit call from tcpl, agonist; for Emax: read-out: EMax (% of Control) trb-bla-agonist-followup-1
[11] = tested on: thyroid hormone receptor (TR); assay: Classification of TR actives across characterization assays (TR-Ag / RXR-Ag; TR model binary); details: for Categorization Code: TR agonist characterization; for Classification: TR-Ag = TR agonist, RXR-Ag = RXR agonist
Method in brief: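 GH3-TRE qHTS agonist, antagonist and viability modes over 8,305 compounds; 84 candidates rescreened in GH3-TRE-Ag, TRβ- and RXRα-UAS-bla HEK 293T one-hybrid assays, HEK293T viability, and TRα/TRβ coactivator recruitment. Actives classified binary after removing pharmaceuticals.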

[12] = molecular target: T2, TRα ligand-binding domain (Homo sapiens, UniProt P10827); assay: TRa-coa LanthaScreen TR-FRET coactivator (SRC-2 peptide) recruitment, agonist (TOX21_TRA_COA_Agonist_Followup_ratio, aeid 2230); assay type: biochemical; details: for AC50: cell-free coactivator recruitment, read-out: TRa-coa-Ag AC50; for TRa-coa hitc: hit call from tcpl, agonist; for Emax: read-out: EMax (% of Control) tra-coa-agonist-followup-1
T2 construct: the receptor LBDs expressed as glutathione S-transferase (GST) fusion proteins; purchased

human RXRα = molecular target: T3, human RXRα (Homo sapiens, UniProt P19793); assay: RXRa-bla-Ag mammalian one-hybrid beta-lactamase assay (TOX21_TR_RXR_BLA_Agonist_Followup_ratio, aeid 2253); assay type: cell-based; details: for AC50: HEK 293T one-hybrid, agonist mode, inactive set to 1,000, read-out: RXRa-bla-Ag AC50; for tr-followup-rxr-bla-agonist-1 hitc: hit call from tcpl; for Emax: read-out: EMax (% of Control) tr-followup-rxr-bla-agonist-1
T3 construct: host or cells: GeneBLAzer UAS-bla HEK 293T
T3 sequence (P19793 227-458 limits assumed): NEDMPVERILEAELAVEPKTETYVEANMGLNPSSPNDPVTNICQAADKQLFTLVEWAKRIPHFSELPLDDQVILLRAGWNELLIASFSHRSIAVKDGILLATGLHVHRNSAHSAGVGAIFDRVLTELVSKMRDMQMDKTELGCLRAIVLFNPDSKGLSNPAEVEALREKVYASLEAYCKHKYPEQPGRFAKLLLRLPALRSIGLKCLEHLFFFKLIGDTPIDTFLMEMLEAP

GH3-TRE-Luc cell line [13] = assay: GH3-TRE-Via cell viability, CellTiter-Fluor (TOX21_TR_LUC_GH3_Antagonist_viability, aeid 805); details: hit call from tcpl
[14] = as above; details: rat
[15] = antagonist mode, 1 nM T3; read-out: GH3-TRE-Antag AC50
[16] = antagonist candidates, inactive samples arbitrarily set to AC50=1,000 μM
[17] = primary qHTS, agonist mode, 24 h, top concentration 92 μM
[18] = # active of 18 total Tox21 viability assays
[19] = median over Tox21 viability assays
[20] = median over 18 Tox21 cell viability assays (Judson et al. 2016, invitrodb_v2), read-out: Global cytotoxicity AC50 median

T2 sequence (P10827 163-410 isoform P10827-2 limits assumed, other chains not shown): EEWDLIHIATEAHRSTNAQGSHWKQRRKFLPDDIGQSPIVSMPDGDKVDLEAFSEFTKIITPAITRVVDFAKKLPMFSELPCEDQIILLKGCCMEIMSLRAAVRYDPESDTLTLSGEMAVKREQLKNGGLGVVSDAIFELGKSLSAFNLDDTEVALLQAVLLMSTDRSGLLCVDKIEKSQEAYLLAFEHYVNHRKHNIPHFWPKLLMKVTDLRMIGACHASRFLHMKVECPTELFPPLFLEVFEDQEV

Categorization Code [11]	Classification [11]	SMILES	AC50 at 24 h (in vitro [1]) [µM]	AC50 [4] [µM]	AC50 [5, 15] [µM]	AC50 [6, 16] [µM]	EMax (% of Control) gh3-tre-agonist-followup-1_agonist [9]	GH3-TRE-Ag-Followup hitc [9]	TRa-coa hitc [12]	Emax [12] [%]	tr-followup-rxr-bla-agonist-1 hitc (human RXRα)	Emax (human RXRα) [%]	EMax (% of Control) gh3-tre-agonist [6]	GH3-TRE-Ag AC50 hitc [6]	AC50 at 24 h [14] [µM]	further results
–	–	COC(=O)C[C@](O)(CCCC(C)(C)O)C(=O)O[C@@H]1C(OC)=C[C@]23CCCN2CCc2cc4c(cc2[C@H]13)OCO4 [Omacetaxine mepesuccinate]	0.057	0.06	0.029	> 92	–	–	–	–	–	–	–	–	–	CC50 at 24 h (in vitro [2]): 0.0816 µM; Active in global cytotoxicity assays (%) [3]: 60.0%
–	–	COc1cccc2c1C(=O)c1c(O)c3c(c(O)c1C2=O)C[C@@](O)(C(C)=O)C[C@@H]3O[C@H]1C[C@H](N)[C@H](O)[C@H](C)O1 [Daunorubicin]	1.01	10.5	–	–	–	–	–	–	–	–	–	–	–	Active in global cytotoxicity assays (%) [3]: 66.1%; active rate in Tox21 viability/cytotoxicity assays [3]: two-thirds; AC50 ([5]; read-out: GH3-TRE-Antag AC50; antagonist mode, 1 nM T3): 0.7 µM; AC50 [6]: > 92 µM
TR-Ag	TR-Ag	O=C(O)CCNC(=O)c1ccccc1 [Betamipron, reference compound]	> 92	> 92	–	–	90.7 % of Control	1	1	120	0	2.9	72.8 % of Control	1	–	AC50 [7]: 11.8 µM; TRb-coa hitc [7]: 1; Emax [7]: 30.8%; TR_LUC_GH3_Antagonist_viability hitc (GH3-TRE-Luc cell line [8]): 0; GLOBAL CYTOTOXICITY cytotox.median [3]: >92; GLOBAL CYTOTOXICITY cytotox.number_Active [3]: 0; AC50 [9]: 1.68 µM; AC50 [10]: 14 µM; TRb-bla hitc [10]: 1; Emax [10]: 85.5%; AC50 [12]: 10.4 µM; activity in RXRα-bla-Ag assay (human RXRα): lack of activity; AC50 (human RXRα): > 92 µM; activity in GH3-TRE agonist assay [6]: concentration-dependent activity; AC50 [6, 17]: 11.8 µM
TR-Ag	TR-Ag	O=C(O)Cc1cc(I)c(Oc2cc(I)c(O)c(I)c2)c(I)c1 [Tetrac, 3,3ʹ,5,5ʹ-tetraiodothyroacetic acid]	–	–	–	–	123.6 % of Control	1	1	153	1	61.6	113.5 % of Control	1	51.3	AC50 [7]: 0.227 µM; TRb-coa hitc [7]: 1; Emax [7]: 122%; TR_LUC_GH3_Antagonist_viability hitc (GH3-TRE-Luc cell line [13]): 1; GLOBAL CYTOTOXICITY cytotox.number_Active [3, 18]: 5; GLOBAL CYTOTOXICITY cytotox.median [3, 19]: 35.7; AC50 [4, 20]: 35.7 µM; AC50 [9]: 0.006 µM; AC50 [10]: 0.0209 µM; TRb-bla hitc [10]: 1; Emax [10]: 204%; AC50 [12]: 0.248 µM; TR_LUC_GH3_Agonist_EMAX (% Control) ([6]; Table S5): 105.7 % Control
–	–	C=C1CC[C@@H]2[C@](C)(CO)[C@H](O)CC[C@@]2(C)[C@@H]1C/C=C1/C(=O)OC[C@H]1O [Andrographolide]	–	–	24.6	> 92	–	–	–	–	–	–	–	–	19.4	–
–	–	CCCCCCCCCCCCn1cc[n+](C)c1.[I-] [1-Dodecyl-3-methylimidazolium iodide]	–	–	1.33	> 92	–	–	–	–	–	–	–	–	–	AC50 (in vitro [1]): 5.1 µM; Active in global cytotoxicity assays (%) ([3]; percentage of 18 Tox21 viability assays with hitc=1): 74.2%; AC50 ([4]; median over 18 Tox21 cell viability assays, inactive set to 1,000, read-out: Global cytotoxicity AC50 median): 41.1 µM

SMILES	Categorization Code [11]	Classification [11]	AC50 at 24 h (in vitro [1]) [µM]	AC50 [4] [µM]	AC50 [5, 15] [µM]	AC50 [6, 16] [µM]	EMax (% of Control) gh3-tre-agonist-followup-1_agonist [9]	GH3-TRE-Ag-Followup hitc [9]	TRa-coa hitc [12]	Emax [12] [%]	tr-followup-rxr-bla-agonist-1 hitc (human RXRα)	Emax (human RXRα) [%]	EMax (% of Control) gh3-tre-agonist [6]	GH3-TRE-Ag AC50 hitc [6]	AC50 at 24 h [14] [µM]	further results
N[C@@H](Cc1cc(I)c(Oc2cc(I)c(O)c(I)c2)c(I)c1)C(=O)O [Levothyroxine, reference compound]	TR-Ag	TR-Ag	–	–	–	–	100.3 % of Control	1	1	171	0	21.2	117.2 % of Control	1	> 92	TR_LUC_GH3_Antagonist_viability hitc (GH3-TRE-Luc cell line [13]): 0; GLOBAL CYTOTOXICITY cytotox.number_Active [3, 18]: 0; GLOBAL CYTOTOXICITY cytotox.median [3, 19]: >92; AC50 [4, 20]: > 92 µM; AC50 (human RXRα): 1.36 µM; AC50 [6, 17]: 0.0061 µM
